Key:
[1] = target: T1, hpol η (Homo sapiens, UniProt Q9Y253); test: Fluorescence-based DNA polymerase strand-displacement assay; format: biochemical
T1 construct: human DNA polymerases η (amino acids 1-437); 6x-histidine (N, cleaved yes); GST (N, cleaved yes); made in house; host or cells: Escherichia coli BL21 (DE3)
T1 sequence (Q9Y253 1-437): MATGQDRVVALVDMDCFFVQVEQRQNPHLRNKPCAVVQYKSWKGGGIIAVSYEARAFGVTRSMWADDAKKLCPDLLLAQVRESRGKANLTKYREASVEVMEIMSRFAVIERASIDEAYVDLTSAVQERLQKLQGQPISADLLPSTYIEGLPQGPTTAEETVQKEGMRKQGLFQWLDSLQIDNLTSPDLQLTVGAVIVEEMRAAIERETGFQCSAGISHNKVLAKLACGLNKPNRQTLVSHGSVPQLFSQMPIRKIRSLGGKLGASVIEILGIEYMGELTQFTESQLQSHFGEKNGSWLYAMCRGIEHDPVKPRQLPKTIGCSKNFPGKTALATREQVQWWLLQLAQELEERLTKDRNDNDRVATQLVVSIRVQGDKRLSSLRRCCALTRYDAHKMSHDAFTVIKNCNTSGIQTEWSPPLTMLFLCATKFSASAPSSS
Text: A library of 320 compounds targeted against nucleic acid interacting proteins was screened for inhibition of polymerase activity using an assay that monitors fluorescence from a 5-carboxytetramethylrhodamine (TAMRA) labeled oligonucleotide. In order to prepare the DNA for the experiment, a TAMRA-labeled reporter (or displaced) strand (SEQ ID NO. 4: 5′-TTT TTT TTG C-TAMRA-3′) and unlabeled primer strand (SEQ ID NO. 5: 5′-TCA CCC TCGTAC GAC TCT T-3′) were annealed to a Black Hole Quencher (BHQ)-labeled template strand (SEQ ID NO. 6: 5′BHQ2-GCAAAAAAAAAA GAG TCG TAC GAG GGT GA-3′) in a solution containing 10 mM Tris (pH 8.0), 50 mM NaCl, 2 mM MgCl2, and dH2O. The template (T), primer (P) and displaced strand (D) oligonucleotides were mixed in a 1:1.5:1.5 (T:P:D) molar ratio for annealing. After an incubation period of three minutes at 95° C., the DNA was allowed to slowly cool to room temperature overnight.
The fluorescence-based assay used to screen for polymerase inhibitors measures polymerase-catalyzed displacement of a TAMRA-labeled oligonucleotide (FIG. 1). For the initial screen, the experimental setup included 50 nM hpol η), 50 nM DNA, 6 μM compound, 100 μM dTTP and 1 mM MgCl2. The reactions were performed in 50 mM Tris (pH 8.0) buffer containing 40 mM NaCl, 2 mM dithiothreitol, and 0.01% (v/v) Tween-20. The concentration of dimethyl sulfoxide (DMSO) was 3.5% (v/v) for the initial screen. The enzyme, the compounds (including a DMSO control) and dTTP were combined with the reaction buffer in individual wells of each half-plate and allowed to incubate for 5-10 minutes. The DNA substrate was subsequently added to initiate the reaction and the plate was read immediately using a BioTek SynergyH4 plate reader (λex=525 nm, λem=598 run). The final reaction volume was 200 μL. Fluorescence was monitored for 90 minutes for most reactions. The initial portion of the velocity curve was analyzed by linear regression to calculate an observed rate of product formation. For each data set, eight DMSO control experiments were averaged to obtain our measure of 100% activity. Rates of product formation in the presence of each compound were then divided by the rate of the DMSO control to produce a relative measure of polymerase activity (0 to 1, with 1 being no inhibition).
(§1) In order to determine the IC50 value for each enzyme, the fluorescence-based polymerase assay was repeated with increasing concentrations of inhibitor. The conditions varied slightly for each enzyme. With the exception of hpol ι, all IC50 experiments were performed in 50 mM Tris HCl (pH 8.0) buffer containing 1 mM MgCl2, 0.1 mM dTTP, 40 mM NaCl, 2 mM DTT, 0.01% (v/v) Tween-20 and 10% (v/v) DMSO. For experiments with hpol ι, KCl was substituted for NaCl and 0.25 mM MnCl2 was substituted for MgCl2. The concentration of inhibitor was 0, 1, 5, 10, 20, 30, 50, 75 and 100 μM. The enzyme and DNA concentrations were as follows: 10 nM hpol η, 50 nM DNA; 3 nM hpol κ, 60 nM DNA; 50 nM hpol ι, 50 nM DNA; 10 nM Dpo4, 50 nM DNA; 100 nM Dpo1, 50 nM DNA; 50 nM hpol β, 50 nM DNA; 50 nM HIV-1 RT, 50 nM DNA. The percent activity was plotted as a function of the log of inhibitor concentration and fit to a four-parameter logistic model (equation 1) using Prism software (Graph Pad, San Diego, Calif.): […]

[2] = target: T1, hpol η; test: Gel-based polymerase extension assay; format: biochemical; details: 6 μM, 13 μM and 60 μM
Method: In order to provide a second measure of enzyme inhibition, polymerase extension assays were performed. Briefly, hpol η (2 nM) was pre-incubated with FAM-13/18-mer primer-template DNA ([…]) and either DMSO (final concentration=10%) or compound (6 μM, 13 μM and 60 μM; maintaining 10% DMSO for all experiments). Polymerase catalysis was initiated by the addition of dNTP (1 mM) and MgCl2 (5 mM). The reaction was allowed to proceed at 37° C. for varying times and then terminated by the addition of 5 μL aliquots of the reaction mix to 25 μL of the quench solution (20 mM EDTA, 95% (v/v) formamide and 0.1% (w/v) bromophenol blue). The samples were separated using a 16% polyacrylamide/7M urea gel and the products analyzed using a Typhoon imager and ImageQuant™ software (GE Healthcare Life Sciences).

[3] = target: T2, hpol β (Homo sapiens, UniProt P06746); test: Fluorescence-based polymerase assay, IC50; format: biochemical
T2 construct: purchased Enzymax (Lexington, Ky.)
Method: as §1

[4] = target: T3, Dpo1 (Saccharolobus solfataricus, UniProt P26811); test: Fluorescence-based polymerase assay, IC50; format: biochemical, Sulfolobus solfataricus
T3 construct: made in house
Method: as §1

[5] = target: T1, hpol η; test: Steady-state kinetic analysis of DNA polymerase activity; format: biochemical; details: for kcat: varying dTTP
Method: The steady-state kinetic parameters defining polymerase activity in the presence of inhibitor were determined using the fluorescence-based reporter assay. Hpol q activity was monitored in the presence of increasing concentrations of dTTP (1, 5, 10, 20, 30, 50, 75, and 100 μM). The measured relative fluorescence units (RFUs) were converted to a nanomolar quantity by calculating the total change in fluorescence observed between the start of the reaction and the time point at which the fluorescence change was maximal, and considering that change to be 100% of substrate converted to product. The percentage of substrate converted to product was multiplied by the concentration of dsDNA in the reaction mixture. Product formation was then plotted as a function of time, and by considering only the linear portion of each curve, velocities were calculated for each dTTP concentration. These were then plotted as a function of dTTP concentration, and fit to a hyperbola. After correcting for enzyme concentration, the steady-state kinetic parameters were obtained as described previously. The experiments were then repeated in the presence of inhibitor (10, 20 and 40 μM) to determine the effect of the small-molecule upon Michaelis-Menten kinetics.
Next, the mechanism of polymerase inhibition by ITBA-3 was investigated. The Michaelis-Menten kinetic parameters describing hpol η activity were measured in the presence of increasing concentrations of inhibitor. By varying the concentration of dTTP in the reaction mixture, the turnover number (kcat) and Michaelis constant (Km,dTTP) for hpol η were determined in the absence of inhibitor and at three concentrations of ITBA-3 (Table 3).

T3 sequence (P26811 whole entry): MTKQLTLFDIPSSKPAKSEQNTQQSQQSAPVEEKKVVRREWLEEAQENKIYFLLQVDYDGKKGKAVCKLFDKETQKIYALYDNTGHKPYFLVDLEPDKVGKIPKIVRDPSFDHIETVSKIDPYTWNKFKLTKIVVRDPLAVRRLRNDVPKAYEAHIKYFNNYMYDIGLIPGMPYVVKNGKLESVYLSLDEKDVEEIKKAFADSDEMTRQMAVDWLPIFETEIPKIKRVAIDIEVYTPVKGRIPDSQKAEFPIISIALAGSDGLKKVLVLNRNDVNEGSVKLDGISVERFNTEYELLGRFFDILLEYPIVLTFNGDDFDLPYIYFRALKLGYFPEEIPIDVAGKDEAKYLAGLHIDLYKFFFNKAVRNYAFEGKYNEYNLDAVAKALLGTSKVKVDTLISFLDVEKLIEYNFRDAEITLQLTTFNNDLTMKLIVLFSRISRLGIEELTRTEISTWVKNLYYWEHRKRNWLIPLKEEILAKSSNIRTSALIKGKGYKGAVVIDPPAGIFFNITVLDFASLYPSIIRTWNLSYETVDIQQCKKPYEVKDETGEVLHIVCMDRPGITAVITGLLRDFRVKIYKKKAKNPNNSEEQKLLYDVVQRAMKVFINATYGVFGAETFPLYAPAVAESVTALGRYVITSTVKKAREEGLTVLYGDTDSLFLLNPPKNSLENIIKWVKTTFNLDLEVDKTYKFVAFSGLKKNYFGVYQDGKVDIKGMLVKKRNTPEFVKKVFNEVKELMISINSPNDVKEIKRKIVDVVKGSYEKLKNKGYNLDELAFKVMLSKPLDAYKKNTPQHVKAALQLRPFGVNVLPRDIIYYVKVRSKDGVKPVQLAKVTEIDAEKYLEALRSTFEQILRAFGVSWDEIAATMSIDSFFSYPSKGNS

Which results are given for O=C1NC(=S)NC(=O)C1=Cc1cn(C(=O)c2ccccc2Br)c2ccc(Cl)cc12 [ITBA-3, 5-((1-(2-bromobenzoyl)-5-chloro-1H-indol-3-yl)methylene)-2-thioxodihydropyimidine-4,6-(1H,5H)-dione]?
IC50 ([1]; 10 nM hpol η, 50 nM DNA, mean ± standard deviation of three data sets, read-out: IC50 for inhibition of hpol η): 29.8 ± 2.7 µM; polymerase activity at increasing concentrations of inhibitor, fluorescence assay ([1]; 6 μM, 13 μM and 20 μM): dose-dependent decrease in polymerase activity; hpol η percent activity relative to the control assay ([1]; 50 μM compound): dramatic improvement in activity; polymerase activity at increasing concentrations of inhibitor, gel-based analysis [2]: dose-dependent decrease in polymerase activity; IC50 [3]: < 50 µM; IC50 [4]: ~80 µM; kcat ([5]; 10 μM inhibitor): 0.04 ± 0.0017 s⁻¹; kcat ([5]; 20 μM inhibitor): 0.05 ± 0.005 s⁻¹; kcat ([5]; 40 μM inhibitor): 0.0517 ± 0.0033 s⁻¹; mode of inhibition ([5]; with respect to dTTP): competitive

— patent US20160075689A1, “POLYMERASE, ENDONUCLEASE, AND HELICASE INHIBITORS AND METHODS OF USING THEREOF” (THE BOARD OF TRUSTEES OF THE UNIVERSITY OF ARKANSAS, priority 2013, published 2016)
